Results on six compounds are retold here after ChEMBL document CHEMBL5252509, “In depth analysis of kinase cross screening data to identify chemical starting points for inhibition of the Nek family of kinases” (Medchemcomm, 2018).

Structures are written as SMILES.

Assay [1] deals with Serine/threonine-protein kinase Nek7 (Homo sapiens) (UniProt Q8TDX7). As to the kind of experiment: Inhibition of NEK7 (unknown origin) at 10 uM relative to control.
The target in assay [2] is T1, Serine/threonine-protein kinase Nek5 (Homo sapiens) (UniProt Q6P3R8).
T1 sequence (whole entry): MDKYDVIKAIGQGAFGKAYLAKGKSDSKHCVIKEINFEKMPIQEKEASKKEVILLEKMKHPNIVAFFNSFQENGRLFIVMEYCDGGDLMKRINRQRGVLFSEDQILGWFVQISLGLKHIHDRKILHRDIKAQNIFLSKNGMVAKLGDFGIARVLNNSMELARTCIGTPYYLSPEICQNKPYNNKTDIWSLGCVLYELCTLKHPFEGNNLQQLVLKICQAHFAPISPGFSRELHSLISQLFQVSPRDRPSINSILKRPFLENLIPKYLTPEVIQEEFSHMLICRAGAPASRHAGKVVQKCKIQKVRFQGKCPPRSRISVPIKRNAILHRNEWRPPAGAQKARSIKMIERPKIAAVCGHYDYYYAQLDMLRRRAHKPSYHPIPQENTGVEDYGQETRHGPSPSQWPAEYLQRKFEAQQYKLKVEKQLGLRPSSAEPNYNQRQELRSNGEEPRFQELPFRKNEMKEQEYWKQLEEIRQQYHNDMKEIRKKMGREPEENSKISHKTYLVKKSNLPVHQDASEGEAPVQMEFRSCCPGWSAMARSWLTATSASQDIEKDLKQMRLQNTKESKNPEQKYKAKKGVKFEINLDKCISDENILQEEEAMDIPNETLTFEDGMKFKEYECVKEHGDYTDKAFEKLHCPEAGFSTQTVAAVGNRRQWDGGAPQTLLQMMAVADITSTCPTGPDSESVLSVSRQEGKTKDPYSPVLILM
As to the kind of experiment: Inhibition of NEK5 (unknown origin) at 10 uM relative to control.

Assay [3] deals with T2, Serine/threonine-protein kinase Nek3 (Homo sapiens) (UniProt P51956).
T2 sequence (whole entry): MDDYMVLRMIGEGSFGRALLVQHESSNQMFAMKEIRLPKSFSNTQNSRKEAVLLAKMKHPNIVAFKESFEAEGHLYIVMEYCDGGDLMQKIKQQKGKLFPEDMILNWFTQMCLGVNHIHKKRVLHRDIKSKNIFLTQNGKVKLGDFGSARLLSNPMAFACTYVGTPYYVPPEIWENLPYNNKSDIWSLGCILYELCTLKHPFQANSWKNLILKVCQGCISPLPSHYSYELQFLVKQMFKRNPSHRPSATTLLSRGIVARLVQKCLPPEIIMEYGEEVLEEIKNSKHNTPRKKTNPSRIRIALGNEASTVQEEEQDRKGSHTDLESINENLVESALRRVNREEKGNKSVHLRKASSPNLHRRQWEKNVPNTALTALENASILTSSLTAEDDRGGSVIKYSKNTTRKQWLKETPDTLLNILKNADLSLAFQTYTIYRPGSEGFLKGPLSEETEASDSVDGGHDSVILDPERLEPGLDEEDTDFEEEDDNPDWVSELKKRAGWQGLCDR
Description: Inhibition of NEK3 (unknown origin) at 10 uM relative to control.

Assay [4] addresses Serine/threonine-protein kinase Nek6 (Homo sapiens) (UniProt Q9HC98). As to the kind of experiment: Inhibition of NEK6 (unknown origin) at 10 uM relative to control.
Assay [5] has as its target Serine/threonine-protein kinase Nek4 (Homo sapiens) (UniProt P51957). Description: Inhibition of NEK4 (unknown origin) at 10 uM relative to control.
Assay [6] has as its target T3, Serine/threonine-protein kinase Nek2 (Homo sapiens) (UniProt P51955).
T3 sequence (whole entry): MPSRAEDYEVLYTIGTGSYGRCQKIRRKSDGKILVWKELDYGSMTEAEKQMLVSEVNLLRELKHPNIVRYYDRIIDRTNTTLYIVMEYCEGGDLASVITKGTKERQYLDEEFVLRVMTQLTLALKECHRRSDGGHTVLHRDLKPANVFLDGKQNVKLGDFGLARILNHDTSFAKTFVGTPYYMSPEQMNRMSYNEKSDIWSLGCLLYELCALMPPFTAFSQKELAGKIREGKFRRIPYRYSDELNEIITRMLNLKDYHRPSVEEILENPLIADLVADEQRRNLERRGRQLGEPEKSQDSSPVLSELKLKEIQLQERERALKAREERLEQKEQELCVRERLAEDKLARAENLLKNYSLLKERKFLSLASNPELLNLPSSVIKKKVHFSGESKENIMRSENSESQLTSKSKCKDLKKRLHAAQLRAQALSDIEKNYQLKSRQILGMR
Description: Inhibition of NEK2 (unknown origin) at 10 uM relative to control.

For assay [7], the target named is T4, Serine/threonine-protein kinase Nek9 (Homo sapiens) (UniProt Q8TD19).
T4 sequence (whole entry): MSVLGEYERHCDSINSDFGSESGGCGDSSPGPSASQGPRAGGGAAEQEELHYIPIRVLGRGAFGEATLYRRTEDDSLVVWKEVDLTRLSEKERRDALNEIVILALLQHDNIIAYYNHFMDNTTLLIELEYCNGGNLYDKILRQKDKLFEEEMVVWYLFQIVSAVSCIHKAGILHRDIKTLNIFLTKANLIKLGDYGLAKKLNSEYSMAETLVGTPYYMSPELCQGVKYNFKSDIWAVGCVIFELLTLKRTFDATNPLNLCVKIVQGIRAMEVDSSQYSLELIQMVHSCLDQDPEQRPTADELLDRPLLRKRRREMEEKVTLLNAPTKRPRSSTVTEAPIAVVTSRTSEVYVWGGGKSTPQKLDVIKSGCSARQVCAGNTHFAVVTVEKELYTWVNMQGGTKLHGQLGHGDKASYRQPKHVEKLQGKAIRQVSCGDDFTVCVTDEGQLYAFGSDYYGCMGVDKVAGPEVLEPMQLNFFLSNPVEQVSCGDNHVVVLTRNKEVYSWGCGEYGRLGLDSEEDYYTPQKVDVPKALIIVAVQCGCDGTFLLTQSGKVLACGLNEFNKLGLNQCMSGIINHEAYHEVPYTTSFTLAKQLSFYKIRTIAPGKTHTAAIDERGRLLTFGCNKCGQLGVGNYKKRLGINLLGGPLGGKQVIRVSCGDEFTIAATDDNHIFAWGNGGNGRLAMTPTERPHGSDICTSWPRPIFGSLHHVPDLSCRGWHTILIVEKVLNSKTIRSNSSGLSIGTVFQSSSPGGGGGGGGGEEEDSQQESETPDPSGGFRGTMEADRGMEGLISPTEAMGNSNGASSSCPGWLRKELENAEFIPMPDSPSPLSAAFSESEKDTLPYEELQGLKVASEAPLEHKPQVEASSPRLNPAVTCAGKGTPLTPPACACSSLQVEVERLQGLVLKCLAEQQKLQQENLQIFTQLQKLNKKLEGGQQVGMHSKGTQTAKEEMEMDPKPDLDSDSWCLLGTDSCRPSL
As to the kind of experiment: Inhibition of NEK9 (unknown origin) at 10 uM relative to control.

Assay [8] deals with Serine/threonine-protein kinase Nek2 (Homo sapiens, UniProt P51955). As to the kind of experiment: Inhibition of NEK2 (unknown origin) assessed as dissociation constant.
Assay [9] deals with Serine/threonine-protein kinase Nek7 (Homo sapiens) (UniProt Q8TDX7). Description: Inhibition of NEK7 (unknown origin) at 3 uM relative to control.
Assay [10] deals with T5, Serine/threonine-protein kinase Nek9 (Homo sapiens, UniProt Q8TD19). Description: Inhibition of NEK9 (unknown origin).
Assay [11] has as its target T5, Serine/threonine-protein kinase Nek9. As to the kind of experiment: Inhibition of NEK9 (unknown origin) assessed as dissociation constant.
For assay [12], the target named is Serine/threonine-protein kinase Nek3 (Homo sapiens, UniProt P51956). Description: Inhibition of NEK3 (unknown origin) assessed as dissociation constant.
The target of assay [13] is Serine/threonine-protein kinase Nek1 (Homo sapiens, UniProt Q96PY6). As to the kind of experiment: Inhibition of NEK1 (unknown origin) assessed as dissociation constant.
Assay [14] deals with Serine/threonine-protein kinase Nek4 (Homo sapiens) (UniProt P51957). Description: Inhibition of NEK4 (unknown origin) at 100 nM relative to control.
Sequence of Serine/threonine-protein kinase Nek4 (Homo sapiens) (P51957 whole entry, looked up): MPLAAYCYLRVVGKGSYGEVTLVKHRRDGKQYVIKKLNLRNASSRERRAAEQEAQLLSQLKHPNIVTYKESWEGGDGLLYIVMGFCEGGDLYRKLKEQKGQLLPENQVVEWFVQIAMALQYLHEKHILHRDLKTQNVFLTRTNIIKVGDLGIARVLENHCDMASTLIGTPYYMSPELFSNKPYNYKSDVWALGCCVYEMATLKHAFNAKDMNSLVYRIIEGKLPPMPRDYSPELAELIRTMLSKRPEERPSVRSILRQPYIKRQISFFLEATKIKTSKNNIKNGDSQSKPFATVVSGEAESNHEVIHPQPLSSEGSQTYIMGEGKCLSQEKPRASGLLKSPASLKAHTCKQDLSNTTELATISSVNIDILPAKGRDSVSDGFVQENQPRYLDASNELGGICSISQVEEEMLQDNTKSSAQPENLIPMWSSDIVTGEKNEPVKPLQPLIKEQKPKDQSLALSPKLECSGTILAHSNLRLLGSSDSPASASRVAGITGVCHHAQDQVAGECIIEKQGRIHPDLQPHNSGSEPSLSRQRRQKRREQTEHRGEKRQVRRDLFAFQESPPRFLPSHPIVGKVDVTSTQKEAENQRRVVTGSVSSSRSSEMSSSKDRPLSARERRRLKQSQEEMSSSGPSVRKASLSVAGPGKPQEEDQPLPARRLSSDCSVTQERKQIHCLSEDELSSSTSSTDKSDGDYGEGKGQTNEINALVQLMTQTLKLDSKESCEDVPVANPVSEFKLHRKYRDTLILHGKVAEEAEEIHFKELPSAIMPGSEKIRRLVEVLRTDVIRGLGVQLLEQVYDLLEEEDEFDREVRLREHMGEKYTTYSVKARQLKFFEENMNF
Assay [15] deals with Mitogen-activated protein kinase kinase kinase 8 (Homo sapiens, UniProt P41279). As to the kind of experiment: Inhibition of MAP3K8 (unknown origin).
Sequence of Mitogen-activated protein kinase kinase kinase 8 (P41279 whole entry): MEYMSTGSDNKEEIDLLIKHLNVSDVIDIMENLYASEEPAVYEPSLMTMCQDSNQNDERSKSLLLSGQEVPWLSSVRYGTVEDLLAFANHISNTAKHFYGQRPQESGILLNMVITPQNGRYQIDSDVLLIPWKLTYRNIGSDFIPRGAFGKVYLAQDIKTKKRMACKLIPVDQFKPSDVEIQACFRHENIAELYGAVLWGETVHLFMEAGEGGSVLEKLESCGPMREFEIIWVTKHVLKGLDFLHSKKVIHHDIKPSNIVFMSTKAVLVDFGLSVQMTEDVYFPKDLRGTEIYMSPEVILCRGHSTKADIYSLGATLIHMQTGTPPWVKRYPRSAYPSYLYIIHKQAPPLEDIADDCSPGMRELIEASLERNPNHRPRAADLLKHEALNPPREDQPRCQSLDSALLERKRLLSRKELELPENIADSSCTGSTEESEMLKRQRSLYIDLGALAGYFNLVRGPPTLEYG
The target in assay [16] is T4, Serine/threonine-protein kinase Nek9 (Homo sapiens). As to the kind of experiment: Inhibition of NEK9 (unknown origin) at 1 uM relative to control.
Assay [17] has as its target T3, Serine/threonine-protein kinase Nek2 (Homo sapiens). Description: Inhibition of NEK2 (unknown origin) at 1 uM relative to control.
Assay [18] has as its target Serine/threonine-protein kinase Nek6 (Homo sapiens) (UniProt Q9HC98). Description: Inhibition of NEK6 (unknown origin) at 1 uM relative to control.
Assay [19] addresses Serine/threonine-protein kinase Nek7 (Homo sapiens) (UniProt Q8TDX7). Description: Inhibition of NEK7 (unknown origin) at 100 nM relative to control.
Assay [20] has the same target. As to the kind of experiment: Inhibition of NEK7 (unknown origin) at 1 uM relative to control.
Assay [21] concerns the target T4, Serine/threonine-protein kinase Nek9 (Homo sapiens). As to the kind of experiment: Inhibition of NEK9 (unknown origin) at 100 nM relative to control.
Assay [22] concerns the target T6, Serine/threonine-protein kinase Nek1 (Homo sapiens) (UniProt Q96PY6).
T6 sequence (whole entry): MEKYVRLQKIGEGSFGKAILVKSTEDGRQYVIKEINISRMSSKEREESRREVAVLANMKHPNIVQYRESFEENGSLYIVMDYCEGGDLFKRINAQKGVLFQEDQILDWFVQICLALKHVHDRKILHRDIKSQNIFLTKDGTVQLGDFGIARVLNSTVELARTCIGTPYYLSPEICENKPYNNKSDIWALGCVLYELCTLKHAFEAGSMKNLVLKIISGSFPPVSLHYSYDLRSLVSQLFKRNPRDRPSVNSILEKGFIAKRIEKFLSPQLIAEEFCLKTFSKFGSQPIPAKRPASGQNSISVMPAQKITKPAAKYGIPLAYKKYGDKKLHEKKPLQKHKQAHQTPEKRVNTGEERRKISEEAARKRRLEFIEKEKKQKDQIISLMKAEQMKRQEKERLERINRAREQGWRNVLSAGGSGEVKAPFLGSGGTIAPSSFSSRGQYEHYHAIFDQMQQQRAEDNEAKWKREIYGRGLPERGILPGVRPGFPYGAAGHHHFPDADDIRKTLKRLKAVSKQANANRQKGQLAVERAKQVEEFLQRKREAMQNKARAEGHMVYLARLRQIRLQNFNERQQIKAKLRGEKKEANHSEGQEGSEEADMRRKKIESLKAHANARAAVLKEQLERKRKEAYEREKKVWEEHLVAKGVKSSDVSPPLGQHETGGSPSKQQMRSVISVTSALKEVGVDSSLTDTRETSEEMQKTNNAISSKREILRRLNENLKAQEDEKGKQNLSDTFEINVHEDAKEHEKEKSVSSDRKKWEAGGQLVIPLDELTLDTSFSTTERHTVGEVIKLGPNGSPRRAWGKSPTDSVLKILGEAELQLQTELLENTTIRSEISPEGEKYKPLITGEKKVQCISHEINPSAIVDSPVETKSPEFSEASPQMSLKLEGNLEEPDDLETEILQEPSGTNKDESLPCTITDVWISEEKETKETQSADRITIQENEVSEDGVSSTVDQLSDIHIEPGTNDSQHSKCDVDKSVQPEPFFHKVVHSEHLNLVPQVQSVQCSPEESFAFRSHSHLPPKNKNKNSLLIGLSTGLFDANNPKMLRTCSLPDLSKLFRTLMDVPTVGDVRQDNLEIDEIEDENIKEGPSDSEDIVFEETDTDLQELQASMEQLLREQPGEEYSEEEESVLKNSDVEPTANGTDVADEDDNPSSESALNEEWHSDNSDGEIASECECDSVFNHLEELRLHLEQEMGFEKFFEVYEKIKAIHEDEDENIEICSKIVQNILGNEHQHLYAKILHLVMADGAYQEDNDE
Description: Inhibition of NEK1 (unknown origin) at 100 nM relative to control.

The target in assay [23] is Serine/threonine-protein kinase Nek6 (Homo sapiens) (UniProt Q9HC98). As to the kind of experiment: Inhibition of NEK6 (unknown origin) at 100 nM relative to control.
Sequence of Serine/threonine-protein kinase Nek6 (Homo sapiens) (Q9HC98 whole entry): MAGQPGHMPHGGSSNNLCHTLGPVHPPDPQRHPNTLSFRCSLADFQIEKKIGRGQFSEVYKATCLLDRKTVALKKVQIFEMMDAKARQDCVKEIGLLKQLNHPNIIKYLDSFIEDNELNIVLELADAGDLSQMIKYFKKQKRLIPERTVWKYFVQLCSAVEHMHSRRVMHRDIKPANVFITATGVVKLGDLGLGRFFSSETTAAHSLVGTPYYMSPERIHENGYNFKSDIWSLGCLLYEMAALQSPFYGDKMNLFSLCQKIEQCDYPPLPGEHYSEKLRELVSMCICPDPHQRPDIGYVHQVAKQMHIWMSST
Assay [24] concerns the target T3, Serine/threonine-protein kinase Nek2 (Homo sapiens). As to the kind of experiment: Inhibition of NEK2 (unknown origin) at 100 nM relative to control.

Usually Kd stands for a measure of binding affinity in units of concentration. As usually defined, the inhibition is the change of the read-out against control, counted positive when it falls. In general, IC50 refers to the point on the concentration scale where inhibition reaches its midpoint. Low readings indicate greater potency in that assay, high ones weaker potency in that assay.

Sequence of Serine/threonine-protein kinase Nek7 (Homo sapiens) (Q8TDX7 whole entry, looked up): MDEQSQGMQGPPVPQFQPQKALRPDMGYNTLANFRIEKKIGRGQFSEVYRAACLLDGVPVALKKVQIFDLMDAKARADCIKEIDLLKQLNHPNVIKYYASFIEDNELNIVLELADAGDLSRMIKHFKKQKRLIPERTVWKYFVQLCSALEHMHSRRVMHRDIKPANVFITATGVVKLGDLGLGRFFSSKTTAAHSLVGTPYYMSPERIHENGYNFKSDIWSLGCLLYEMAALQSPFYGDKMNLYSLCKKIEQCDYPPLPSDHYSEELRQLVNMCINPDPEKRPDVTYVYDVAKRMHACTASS

As for `CCCS(=O)(=O)Nc1ccc(F)c(C(=O)c2c[nH]c3ncc(-c4ccc(Cl)cc4)cc23)c1F` [VEMURAFENIB], the % control in [1] came out at 59%; in assay [2] it was 100%; in [3] it was 69%; in assay [4], 91%; in [5] it was 71%; in assay [6], 49%. The % control in [7] was 66%. Besides, in assay [8], the dissociation constant Kd turned out to be 5000 nM.
Turning to `COCCOc1cc2c(-n3nc(-c4ccccn4)nc3N)ncnc2cc1OC`, in [9], the inhibition came out at 78%.
`N#CCNC(=O)c1ccc(-c2ccnc(Nc3ccc(N4CCOCC4)cc3)n2)cc1` [MOMELOTINIB] gave an IC50 in assay [10] of 100 nM. Further, the dissociation constant (Kd) in assay [11], in assay [12] and in assay [13] was < 100 nM each time.
Consider `NC(=O)c1ccc(-c2ccc(Oc3cncc4sc(-c5nn[nH]n5)cc34)cc2)cc1`, for which the inhibition in [14] was 89.9%. The compound further came in with a 50% inhibitory concentration (IC50) in assay [15] of 150 nM.
For `COc1cc(Nc2ncc3c(C)nc(-c4cccc(Oc5ccccc5)c4)n3n2)cc(OC)c1OC`, the inhibition in assay [16] was -1%; in [17], 32%; in [18], 81%; in assay [19], 4%; in assay [20], 2%; in assay [21] it was 3%. The figures for the inhibition in assay [22], in assay [23] and in assay [24] were 3%, 29% and 7%, respectively.
With `COc1cc(Nc2ncc3c(C)nc(-c4cccc(C(F)(F)F)c4)n3n2)cc(OC)c1OC`, the inhibition is 86% in assay [16]; 38% in [17]; 9% in [18]; 6% in assay [19]; 10% in [20]; 55% in [21]. Besides, the inhibition in [22] is 5%; in assay [23] it was 4%; in assay [24] it was 8%.
